The target of one assay is LC3B (Homo sapiens, UniProt Q9GZQ8). Briefly: Fluorescence Polarization (FP) Assay: displacement of FITC-labeled peptide from GST-LC3B. The assay is classed as binding.
Details: not given
The procedure:
The compounds of the present invention for regulating the autophagy-related protein LC3B were tested by Fluorescence Polarization (FP) Assay.
Fluorescence Polarization (FP) Assay Test
A general note: In fluorescence polarisation assays a small probe gives low polarisation when free and higher when bound to something large.
`CN1C(=O)C(=CNCCN2CCN(CCO)CC2)C(=O)N(C)C1=O` [Compound 10, 5-(((2-(4-(2-hydroxyethyl)piperazin-1-yl)ethyl)amino)methylene)-1,3-dimethylpyrimidine-2,4,6(1H,3H,5H)-trione] returned an IC50 of 100 to 1000 µM.

Still in this assay, the particulars now being: Fluorescence Polarization assay; GST-LC3B 180 nM, FITC-labeled peptide 18 nM, 25° C.; read-out: IC50.
Turning to `CC1(C)OC(=O)C(=CNCCN2CCN(CCO)CC2)C(=O)O1` [Compound 1, 5-(((2-(4-(2-hydroxyethyl)piperazin-1-yl)ethyl)amino)methylene)-2,2-dimethyl-1,3-dioxane-4,6-dione], the IC50 lay in the range of 100 to 1000 µM.

For `NC=C1C(=O)CC(c2ccccc2)CC1=O` (stereo not shown) [Compound 2, 2-(aminomethylene)-5-phenylcyclohexane-1,3-dione], the IC50 was 3 to 15 µM.

Turning to `CSC=C1C(=O)CC(c2ccccc2)CC1=O` (stereo not shown) [Compound 4A, 2-((methylthio)methylene)-5-phenylcyclohexane-1,3-dione], the IC50 lay in the range of 3 to 15 µM.

As for `O=C1CC(c2ccccc2)CC(=O)C1=CNc1cccnc1` (stereo not shown) [Compound 7, 5-phenyl-2-((pyridin-3-ylamino)methylene) cyclohexane-1,3-dione], the 50% inhibitory concentration (IC50) lay in the range of 3 to 15 µM.

`O=C1CC(c2ccccc2)CC(=O)C1=CNCCN1CCN(CCO)CC1` (stereo not shown) [Compound 8, 2-(((2-(4-(2-hydroxyethyl)piperazin-1-yl)ethyl)amino)methylene)-5-phenylcyclohexane-1,3-dione]: the IC50 was less than 3 µM.

On to `O=C1C(=CNCCN2CCN(CCO)CC2)C(=O)c2ccccc21` [Compound 9, 2-(((2-(4-(2-hydroxyethyl)piperazin-1-yl)ethyl)amino)methylene)-1H-indene-1,3(2H)-dione], for which the IC50 is 100 to 1000 µM.

For the compound `O=C1CCCC(=O)C1=CNCCN1CCN(CCO)CC1` [Compound 11, 2-(((2-(4-(2-hydroxyethyl)piperazin-1-yl)ethyl)amino)methylene) cyclohexane-1,3-dione], the IC50 fell in the range of 100 to 1000 µM.

Regarding `O=C1COCC(=O)C1=CNCCN1CCN(CCO)CC1` [Compound 12, 4-(((2-(4-(2-hydroxyethyl)piperazin-1-yl)ethyl)amino)methylene)-2H-pyran-3,5(4H,6H)-dione], the IC50 was in the range of 100 to 1000 µM.

For the compound `CC1CC(=O)C(=CNCCN2CCN(CCO)CC2)C(=O)C1` (stereo not shown) [Compound 14, 2-(((2-(4-(2-hydroxyethyl)piperazin-1-yl)ethyl)amino)methylene)-5-methylcyclohexane-1,3-dione], the IC50 is 100 to 1000 µM.

For the compound `COc1cc(OC)c2c(c1Cl)O[C@@]1(C(=O)/C(=C\NCCN3CCN(CCO)CC3)C(=O)C[C@H]1C)C2=O` [Compound 15, (2R,6′R)-7-chloro-3′-(((2-(4-(2-hydroxyethyl)piperazin-1-yl)ethyl)amino)methylene)-4,6-dimethoxy-6′-methyl-3H-spiro[benzofuran-2,1′-cyclohexane]-2′,3,4′-trione], the IC50 lay within 3 to 15 µM.

With `O=C1CC(c2ccnc3[nH]ccc23)CC(=O)C1=CNCCN1CCN(CCO)CC1` (stereo not shown) [Compound 17, 2-(((2-(4-(2-hydroxyethyl)piperazin-1-yl)ethyl)amino)methylene)-5-(1H-pyrrolo[2,3-b]pyridin-4-yl)cyclohexane-1,3-dione], the IC50 fell in the range of 3 to 15 µM.

For the compound `O=C1CC(c2c[nH]c3ncccc23)CC(=O)C1=CNCCN1CCN(CCO)CC1` (stereo not shown) [Compound 18, 2-(((2-(4-(2-hydroxyethyl)piperazin-1-yl)ethyl)amino)methylene)-5-(1H-pyrrolo[2,3-b]pyridin-3-yl)cyclohexane-1,3-dione], the half-inhibitory concentration (IC50) is 3 to 15 µM.

Regarding `COCCn1ccc2c(C3CC(=O)C(=CNCCN4CCN(CCO)CC4)C(=O)C3)ccnc21` (stereo not shown) [Compound 19, 2-(((2-(4-(2-hydroxyethyl)piperazin-1-yl)ethyl)amino)methylene)-5-(1-(2-methoxyethyl)-1H-pyrrolo[2,3-b]pyridin-4-yl)cyclohexane-1,3-dione], the IC50 lay within 15 to 100 µM.

For `O=C1CC(c2cnc3c(ccc4cccnc43)c2)CC(=O)C1=CNCCN1CCN(CCO)CC1` (stereo not shown) [Compound 20, 2-(((2-(4-(2-hydroxyethyl)piperazin-1-yl)ethyl)amino)methylene)-5-(1,10-phenanthrolin-3-yl)cyclohexane-1,3-dione], the IC50 fell in the range of 100 to 1000 µM.

With `O=C1CC(c2ccc(Sc3ccccc3)cc2)CC(=O)C1=CNCCN1CCN(CCO)CC1` (stereo not shown) [Compound 21, 2-(((2-(4-(2-hydroxyethyl)piperazin-1-yl)ethyl)amino)methylene)-5-(4-(phenylthio)phenyl) cyclohexane-1,3-dione], the IC50 lay in the range of 15 to 100 µM.

Regarding `Cn1nnc(-c2ccc(C3CC(=O)C(=CNCCN4CCN(CCO)CC4)C(=O)C3)cc2)n1` (stereo not shown) [Compound 22, 2-(((2-(4-(2-hydroxyethyl)piperazin-1-yl)ethyl)amino)methylene)-5-(4-(2-methyl-2H-tetrazol-5-yl)phenyl) cyclohexane-1,3-dione], the half-inhibitory concentration (IC50) lay within 100 to 1000 µM.

Turning to `COc1cc(C2CC2)c(C2CC(=O)C(=CNCCN3CCN(CCO)CC3)C(=O)C2)cc1OC` (stereo not shown) [Compound 23, 5-(2-cyclopropyl-4,5-dimethoxyphenyl)-2-(((2-(4-(2-hydroxyethyl)piperazin-1-yl)ethyl)amino)methylene) cyclohexane-1,3-dione], the IC50 was in the range of 3 to 15 µM.

Take `O=C1CC(c2c[nH]c3cccc(F)c23)CC(=O)C1=CNCCN1CCN(CCO)CC1` (stereo not shown) [Compound 24, 5-(4-fluoro-1H-indol-3-yl)-2-(((2-(4-(2-hydroxyethyl)piperazin-1-yl)ethyl)amino)methylene) cyclohexane-1,3-dione]: the IC50 was less than 3 µM.

For the compound `O=C1CC(c2cnc3c(N4CCOCC4)nccn23)CC(=O)C1=CNCCN1CCN(CCO)CC1` (stereo not shown) [Compound 25, 2-(((2-(4-(2-hydroxyethyl)piperazin-1-yl)ethyl)amino)methylene)-5-(8-morpholinoimidazo [1,2-a]pyrazin-3-yl) cyclohexane-1,3-dione], the IC50 lay within 100 to 1000 µM.

`COc1cc2ncnc(C3CC(=O)C(=CNCCN4CCN(CCO)CC4)C(=O)C3)c2cc1OC` (stereo not shown) [Compound 26, 5-(6,7-dimethoxyquinazolin-4-yl)-2-(((2-(4-(2-hydroxyethyl)piperazin-1-yl)ethyl)amino)methylene) cyclohexane-1,3-dione]: the IC50 was 15 to 100 µM.

`O=C1CC(c2ncnc3sccc23)CC(=O)C1=CNCCN1CCN(CCO)CC1` (stereo not shown) [Compound 27, 2-(((2-(4-(2-hydroxyethyl)piperazin-1-yl)ethyl)amino)methylene)-5-(thieno[2,3-d]pyrimidin-4-yl)cyclohexane-1,3-dione]: the IC50 was in the range of 15 to 100 µM.

With `Cc1ccccc1C1CC(=O)C(=CNCCN2CCN(CCO)CC2)C(=O)C1` (stereo not shown) [Compound 28, 2-(((2-(4-(2-hydroxyethyl)piperazin-1-yl)ethyl)amino)methylene)-5-(o-tolyl)cyclohexane-1,3-dione], the IC50 lay within 3 to 15 µM.

As to `CC1(c2ccccc2)CC(=O)C(=CNCCN2CCN(CCO)CC2)C(=O)C1` (stereo not shown) [Compound 29, 2-(((2-(4-(2-hydroxyethyl)piperazin-1-yl)ethyl)amino)methylene)-5-methyl-5-phenylcyclohexane-1,3-dione], the IC50 fell in the range of 100 to 1000 µM.

For the compound `CC1(C)O[C@@H]2[C@H](O1)[C@@H](C1CC(=O)C(=CNCCN3CCN(CCO)CC3)C(=O)C1)O[C@H]2n1cnc2c(N3CCOCC3)ncnc21` (stereo partly drawn) [Compound 30, 5-((3aR,4R,6R,6aR)-2,2-dimethyl-6-(6-morpholino-9H-purin-9-yl)tetrahydrofuro[3,4-d][1,3]dioxol-4-yl)-2-(((2-(4-(2-hydroxyethyl)piperazin-1-yl)ethyl)amino)methylene) cyclohexane-1,3-dione], the IC50 fell in the range of 100 to 1000 µM.

Usually IC50 stands for the concentration at which inhibition is half-maximal.

The values are drawn from US11319303B2 (WIGEN BIOMEDICINE TECHNOLOGY (SHANGHAI) CO., LTD., priority 2017, dated 2022).
